Source: patent publication US20090197842A1, “Therapeutic Agent for Neuropathic Pain” (JAPAN SCIENCE AND TECHNOLOGY CORPORATION, priority 2005, published 2009)

Experiments:
[1] = test system: pain hypersensitivity model rats; experiment: Mechanical stimulation test (Dynamic Plantar Aesthesiometer), pain threshold of left plantar; type: in vivo; conditions: for maximum pain threshold after the administration: max pressure 15.0 g, measured 30, 60, 90 min after administration; for effect of administration on pain threshold (in words): intraperitoneal, versus 0.5 w/v % CMC-Na control, Dunnett's test
Experimental: (§1) As experimental animals, pain hypersensitivity model rats obtained by conducting complete ligation on L5/L6 spinal nerves of 6-week-old male rats were used.
(§2) Mechanical stimulation tests were carried out using Dynamic Plantar Aesthesiometer (37400, Ugo Basile), and thermal stimulation tests were carried out using a plantar thermal stimulation tester (Plantar Test 7370, Ugo Basile). The pain threshold of the feet of each model animal was measured, and the animals were divided into groups using Preclinical Package Version 5.0 (SAS Institute Japan), such that the pain thresholds are uniform among the groups as measured prior to administration on each day of the experiment.
(§3) The test substance was prepared as follows. The base material was ground with an agate mortar and a pestle, and 0.5 w/v % carboxyrnethylcellulose sodium (CMC-Na) as a medium was gradually added thereto to form a uniform suspension. The concentration of the liquid to be administered was adjusted with a graduated cylinder or a volumetric flask, only before use.
(§4) The purpose of administering the test substance is to ascertain the direct effect on spinal cord. Since the test substance had been confirmed to pass through the brain barrier, a simple intraperitoneal administration was used. The test substance in a volume of 5 ml/kg was intraperitoneally administered using a syringe barrel and a needle.
(§5) Groups each including five pain hypersensitivity model male rats (355.8 to 457.9 g) were used. Before administration of ICI182.780, and at 30 minutes, 60 minutes and 90 minutes after administration of ICI182.780, the pain threshold of the left plantar of each rat was measured using a stimulating apparatus which had been set such that the maximum pressure would be 15.0 g and the maximum pressure would be reached in 20 seconds.
as §5, with “(290.3” for “(355.8”, “354.8” for “457.9”, “17β-estradiol,” for “ICI182.780,”
Groups each including five pain hypersensitivity model male rats (294.8 to 415.4 g) were used. Before administration of 17β-estradiol+ICI128.780, and at 30 minutes, 60 minutes and 90 minutes after administration of 17β-estradiol+ICI182.780, the pain threshold of the left plantar of each rat was measured using a stimulating apparatus which had been set such that the maximum pressure would be 15.0 g and the maximum pressure would be reached in 20 seconds.
as §5, with “(333.7” for “(355.8”, “408.3” for “457.9”, “fluocinolone acetonide,” for “ICI182.780,”
as §5, with “(261.4” for “(355.8”, “320.9” for “457.9”, “triamcinolone acetonide,” for “ICI182.780,”

[2] = test system: neuropathic pain model mice; conditions: J. Neurosci. 2004, 2005; cited from earlier work
[3] = test system: pain hypersensitivity model rats; experiment: Thermal stimulation test (plantar thermal stimulation tester), pain threshold of left plantar; type: in vivo; conditions: thermal stimulation intensity 35; for maximum pain threshold after the administration: measured 30, 60, 90 min after administration
Experimental: as §1, §2, §3, §4
(§6) Groups each including five pain hypersensitivity model male rats (282.0 to 452.4 g) were used. Before administration of 17β-estradiol+ICI128.780, and at 30 minutes, 60 minutes and 90 minutes after administration of 17β-estradiol+ICI182.780, the pain threshold of the left plantar of each rat was measured using a plantar thermal stimulating apparatus set to a thermal stimulation intensity of 45.
as §6, with “(320.0” for “(282.0”, “449.6” for “452.4”, “fluocinolone acetonide,” for “17β-estradiol+ICI128.780,”, “fluocinolone acetonide,” for “17β-estradiol+ICI182.780,”, “35.” for “45.”

Compound: CC1(C)O[C@@H]2C[C@H]3[C@@H]4CCC5=CC(=O)C=C[C@]5(C)[C@@]4(F)[C@@H](O)C[C@]3(C)[C@]2(C(=O)CO)O1 [triamcinolone acetonide]
- maximum pain threshold after the administration ([1]; 0.3 mg/kg intraperitoneal): 6.6 g
- maximum pain threshold after the administration ([1]; 3 mg/kg intraperitoneal): 8.1 g
- maximum pain threshold after the administration ([1]; 30 mg/kg intraperitoneal): 8.8 g

Compound: CC#C[C@]1(O)CC[C@H]2[C@@H]3CCC4=CC(=O)CCC4=C3[C@@H](c3ccc(N(C)C)cc3)C[C@@]21C [mifepristone]
- analgesic action against neuropathic pain [2]: exhibited an analgesic action against neuropathic pain

Compound: C[C@]12CC[C@@H]3c4ccc(O)cc4CC[C@H]3[C@@H]1CC[C@@H]2O [17β-estradiol]
- maximum pain threshold after the administration ([1]; 0.3 mg/kg intraperitoneal): 8.1 g
- maximum pain threshold after the administration ([1]; 3 mg/kg intraperitoneal): 9.4 g
- maximum pain threshold after the administration ([1]; 30 mg/kg intraperitoneal): 10.4 g
- effect of administration on pain threshold (in words) [1]: significantly increased the pain threshold

Compound: CC1(C)O[C@@H]2C[C@H]3[C@@H]4C[C@H](F)C5=CC(=O)C=C[C@]5(C)[C@@]4(F)[C@@H](O)C[C@]3(C)[C@]2(C(=O)CO)O1 [fluocinolone acetonide]
- maximum pain threshold after the administration ([1]; 0.3 mg/kg intraperitoneal): 7.5 g
- maximum pain threshold after the administration ([1]; 3 mg/kg intraperitoneal): 11.3 g
- maximum pain threshold after the administration ([1]; 10 mg/kg intraperitoneal): 11.6 g
- effect of administration on pain threshold (in words) [1]: significantly increased the pain threshold
- maximum pain threshold after the administration ([3]; 0.3 mg/kg intraperitoneal): 8.0 s
- maximum pain threshold after the administration ([3]; 3 mg/kg intraperitoneal): 9.9 s
- maximum pain threshold after the administration ([3]; 10 mg/kg intraperitoneal): 9.9 s
- effect of administration on pain threshold (in words) ([3]; intraperitoneal, versus 0.5 w/v % CMC-Na control): significantly increased the pain threshold

Compound: C[C@]12CC[C@@H]3c4ccc(O)cc4C[C@@H](CCCCCCCCC[S+]([O-])CCCC(F)(F)C(F)(F)F)[C@H]3[C@@H]1CC[C@@H]2O (stereo partly drawn) [ICI182.780, 7α-17β-[9-[(4,4,5,5,5-pentafluoropentyl)sulphinyl]nonyl]estra-1,3,5(10)-trien-3,17-diol]
- maximum pain threshold after the administration ([1]; 0.3 mg/kg intraperitoneal): 6.7 g
- maximum pain threshold after the administration ([1]; 3 mg/kg intraperitoneal): 8.7 g
- maximum pain threshold after the administration ([1]; 30 mg/kg intraperitoneal): 10.6 g
- effect of administration on pain threshold (in words) [1]: significantly increased the pain threshold
